Measurements taken from PMC7822874, “Chemoprotective antimalarials identified through quantitative high-throughput screening of Plasmodium blood and liver stage parasites” (Scientific Reports, 2021).
Where two headings read alike, the source gives them in different places.

Columns and labels:
[1] = test system: Plasmodium falciparum Dd2 asexual blood stage parasites; experiment: microbe, parasite or virus in culture; set-up: species or system Plasmodium falciparum Dd2 in human erythrocytes; single determination (one 11-point concentration-response curve); conditions: Plasmodium falciparum, DD2, Erythrocyte, 72 h; read-out: AC50
[2] = test system: P. berghei-ANKA-GFP-LucCON liver stage parasites in HepG2-A16-CD81EGFP cells; experiment: P. berghei liver stage Pb-Luc assay, Method 1 (UCSD, 1536-well); type: cell-based, Plasmodium berghei; conditions: Plasmodium berghei, 48 h, P. berghei liver stage, average of 2 wells on a 1536 well plate; for activity at 1 µM: 1 µM compound treatment (10 mM stocks); for activity at 3 µM: 3 µM compound treatment (10 mM stocks)
HepG2-A16-CD81EGFP cells = conditions: average of 2 wells; for HepG2 1uM growth rep1 / HepG2 1uM growth rep2: HepG2, 1 µM compound treatment (10 mM stocks); for HepG2 1uM growth rep1 / HepG2 3uM growth rep1: replicate 1, normalized; for HepG2 1uM growth rep2 / HepG2 3uM growth rep2: replicate 2, normalized; for HepG2 3uM growth rep1 / HepG2 3uM growth rep2: HepG2, 3 µM compound treatment (10 mM stocks)
[3] = replicate 1, normalized, read-out: PbLuc 1uM growth rep1
[4] = replicate 2, normalized, read-out: PbLuc 1uM growth rep2
[5] = replicate 1, normalized, read-out: PbLuc 3uM growth rep1
[6] = replicate 2, normalized, read-out: PbLuc 3uM growth rep2

SMILES | AC50 [1] [nM] | activity at 1 µM [2, 3] [%] | activity at 1 µM [2, 4] [%] | activity at 3 µM [2, 5] [%] | activity at 3 µM [2, 6] [%] | HepG2 1uM growth rep1 (HepG2-A16-CD81EGFP cells) [%] | HepG2 1uM growth rep2 (HepG2-A16-CD81EGFP cells) [%] | HepG2 3uM growth rep1 (HepG2-A16-CD81EGFP cells) [%] | HepG2 3uM growth rep2 (HepG2-A16-CD81EGFP cells) [%]
Cc1ccc(Sc2ccc(NC(=O)CCl)cc2)cc1C [MLS000334846-01] | 9440 | 124 | 83 | 88 | 81 | 92 | 91 | 92 | 96
CCn1cnc2c(Nc3cc(F)cc(F)c3)nc(C#N)nc21 [MLS002471782-01] | 2370 | 155 | 128 | 149 | 187 | 88 | 82 | 83 | 89
CCN(CC)CCN1C(=O)c2ccccc2NC1c1ccc(Br)cc1 (stereo not drawn) [MLS000723891-01] | 1500 | 82 | 70 | 13 | 21 | 103 | 94 | 84 | 91
CC(NCc1ccccc1O)C12CC3CC(CC(C3)C1)C2 (stereo not drawn) [MLS001173343-01] | 94.4 | 106 | 90 | 70 | 88 | 109 | 103 | 93 | 102
Cc1ccccc1C1C(C#N)=C2N=C(N)c3c(sc4c3CCCCC4)N2C2=C1C(=O)CCC2 (stereo not drawn) [MLS000543544-01] | 2660 | 129 | 99 | 79 | 94 | 94 | 95 | 90 | 96
O=C(Nc1ccc(Nc2ccncc2)cc1)c1ccc(Nc2ccnc3ccc([N+](=O)[O-])cc23)cc1 [MLS000766132-01] | 750 | 125 | 103 | 94 | 98 | 92 | 91 | 89 | 92
Clc1ccc2c(N/N=C/c3cccc(Br)c3)ccnc2c1 [MLS000336198-01] | 10600 | 63 | 77 | 45 | 62 | 83 | 80 | 87 | 87
Cc1ccc(-c2c(C(=O)N/N=C/c3cccc(Cl)c3)nnn2-c2nonc2N)cc1 [MLS001139410-01] | 237 | 143 | 123 | 105 | 91 | 90 | 91 | 90 | 94
C/C(=N\Nc1nc(-c2ccccc2O)nc2ccccc12)c1ccccc1 [MLS000714167-01] | 750 | 134 | 124 | 108 | 121 | 91 | 94 | 91 | 97
COc1cccc2sc(N3CCN(C(=O)c4ccc([N+](=O)[O-])o4)CC3)nc12 [MLS001234267-01] | 4730 | 111 | 94 | 69 | 79 | 103 | 96 | 94 | 93
Cc1ccnc(NC(=O)c2cccc(S(=O)(=O)N3CCCc4ccccc43)c2)c1 [MLS001159724-01] | 2370 | 100 | 97 | 38 | 52 | 101 | 95 | 90 | 89
CC(C)CCN(CCC(C)C)CC(O)Cn1c2ccccc2c(=O)c2ccccc21 (stereo not drawn) [MLS001030199-01] | 1880 | 128 | 103 | 76 | 87 | 105 | 96 | 84 | 94
O=C(CSc1nc(Nc2ccccc2)nc(N2CCOCC2)n1)Nc1cc(Cl)ccc1O [MLS001035450-01] | 2370 | 97 | 93 | 67 | 102 | 100 | 92 | 83 | 88
Cc1ccc(-c2nn(-c3ccccc3)c3[nH]c(=O)c(CNCc4ccccc4)cc23)cc1 [MLS000067457-01] | 422 | 76 | 56 | 38 | 42 | 95 | 94 | 91 | 100
CCOC(=O)c1c(NC(=O)C[n+]2ccc(N(C)C)cc2)sc(C)c1C [MLS000710762-01] | 1330 | 75 | 72 | 18 | 30 | 91 | 84 | 65 | 65
CCCCN(C(=O)c1cccc(S(=O)(=O)N(C)c2ccc(C)cc2)c1)c1c(N)n(CCCC)c(=O)[nH]c1=O [MLS001128188-01] | 5310 | 100 | 88 | 85 | 111 | 96 | 92 | 90 | 93
COc1ccc2nc(N3CCN(C(=O)c4ccc([N+](=O)[O-])o4)CC3)sc2c1 [MLS001234236-01] | 4730 | 100 | 81 | 91 | 103 | 91 | 90 | 89 | 89
COc1cc(NC(=O)c2cc([N+](=O)[O-])ccc2NC(=O)CNC2CCCCC2C)cc(OC)c1 (stereo not drawn) [MLS000950459-01] | 5960 | 94 | 109 | 82 | 122 | 96 | 92 | 90 | 90
